Tested on: coxsackievirus A9 (CVA9)
Assay: cytopathic effect (CPE) inhibition assay against CVA9 in A549 cells
Type: cell-based
Details: virus treated 37° C. 1 hour; for antiviral activity of commercial ganoderic acids against CVA9 (FIG. 10B): 12.5 μM, 25 μM, 50 μM, 100 μM and 500 μM, MOI 100; for antiviral activity of commercial ganoderic acid against CVA9 (FIG. 10A): 100 μM, 500 μM, 1 mM, 5 mM and 10 mM

Row | Compound | antiviral activity of commercial ganoderic acids against CVA9 (FIG. 10B) | antiviral activity of commercial ganoderic acid against CVA9 (FIG. 10A) (MOI 66.7) | antiviral activity of commercial ganoderic acid against CVA9 (FIG. 10A) (MOI 66.7, listed as Ganoderic Acid A)
1 | C/C(=C\CC[C@@H](C)[C@H]1CC[C@@]2(C)C3=CC[C@H]4C(C)(C)[C@@H](O)CC[C@]4(C)C3=CC[C@]12C)C(=O)O [GA Y, Ganoderic Acid Y] | fails to demonstrate any antiviral activity |  | 
2 | CC(=O)O[C@H]1C[C@H]([C@H](C)CC/C=C(\C)C(=O)O)[C@@]2(C)CC=C3C(=CC[C@H]4C(C)(C)C(=O)CC[C@]34C)[C@]12C [GA TQ, Ganoderic Acid TQ] | fails to demonstrate any antiviral activity |  | 
3 | C/C(=C\CC[C@@H](C)[C@H]1C[C@H](O)[C@@]2(C)C3=CC[C@H]4C(C)(C)C(=O)CC[C@]4(C)C3=CC[C@]12C)C(=O)O [GA TR, Ganoderic Acid TR] | fails to demonstrate any antiviral activity |  | 
4 | C[C@H](CC(=O)C[C@@H](C)[C@H]1C[C@H](O)[C@@]2(C)C3=C(C(=O)C[C@]12C)[C@@]1(C)CCC(=O)C(C)(C)[C@@H]1C[C@@H]3O)C(=O)O [GA A, Ganoderic Acid A] |  | fails to demonstrate any antiviral activity | does not possess any antiviral activity
